Measured values from publication PMC3914206.

Tests used:
Assay type in all cases: binding
Details in all cases: Compound Concentration 10 µM
[1] = biological target: T1, panel of 442 kinases (Homo sapiens, UniProt O95747)
T1 construct: purchased KINOMEscan
Description: (§1) We assessed the selectivity of members of this scaffold using the KINOMEscan methodology across a near comprehensive panel of 442 kinases [[18,27]].

[2] = biological target: T2, panel of 442 kinases (Homo sapiens, UniProt P45983)
T2 construct: purchased KINOMEscan
Description: as §1

[3] = biological target: T3, panel of 442 kinases (Homo sapiens, UniProt P51451)
T3 construct: purchased KINOMEscan
Description: as §1

T2 sequence (P45983 whole entry): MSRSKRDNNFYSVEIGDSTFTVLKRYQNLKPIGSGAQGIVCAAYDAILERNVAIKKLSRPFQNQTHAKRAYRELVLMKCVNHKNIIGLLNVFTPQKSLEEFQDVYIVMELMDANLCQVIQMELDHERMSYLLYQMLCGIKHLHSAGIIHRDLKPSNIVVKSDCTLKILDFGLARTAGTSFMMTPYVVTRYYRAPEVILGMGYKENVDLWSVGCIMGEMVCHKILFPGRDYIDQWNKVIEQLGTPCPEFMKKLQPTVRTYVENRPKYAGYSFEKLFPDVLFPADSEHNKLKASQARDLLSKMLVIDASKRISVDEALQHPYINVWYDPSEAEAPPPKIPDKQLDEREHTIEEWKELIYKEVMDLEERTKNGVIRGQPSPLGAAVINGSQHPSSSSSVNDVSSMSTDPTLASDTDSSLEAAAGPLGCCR
T3 sequence (P51451 whole entry): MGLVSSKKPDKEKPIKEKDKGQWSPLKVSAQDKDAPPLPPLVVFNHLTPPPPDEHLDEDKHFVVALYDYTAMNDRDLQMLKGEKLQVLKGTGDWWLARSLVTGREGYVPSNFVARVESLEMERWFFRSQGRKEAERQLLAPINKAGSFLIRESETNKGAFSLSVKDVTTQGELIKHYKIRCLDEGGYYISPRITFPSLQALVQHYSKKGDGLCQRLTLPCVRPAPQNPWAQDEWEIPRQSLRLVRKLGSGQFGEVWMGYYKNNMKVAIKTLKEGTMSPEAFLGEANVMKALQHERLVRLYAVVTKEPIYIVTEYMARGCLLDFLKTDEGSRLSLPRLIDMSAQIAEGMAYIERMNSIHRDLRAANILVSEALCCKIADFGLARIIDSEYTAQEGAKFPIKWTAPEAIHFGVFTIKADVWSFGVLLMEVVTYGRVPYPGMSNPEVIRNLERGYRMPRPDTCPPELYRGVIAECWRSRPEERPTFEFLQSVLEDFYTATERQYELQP
T1 sequence (O95747 whole entry): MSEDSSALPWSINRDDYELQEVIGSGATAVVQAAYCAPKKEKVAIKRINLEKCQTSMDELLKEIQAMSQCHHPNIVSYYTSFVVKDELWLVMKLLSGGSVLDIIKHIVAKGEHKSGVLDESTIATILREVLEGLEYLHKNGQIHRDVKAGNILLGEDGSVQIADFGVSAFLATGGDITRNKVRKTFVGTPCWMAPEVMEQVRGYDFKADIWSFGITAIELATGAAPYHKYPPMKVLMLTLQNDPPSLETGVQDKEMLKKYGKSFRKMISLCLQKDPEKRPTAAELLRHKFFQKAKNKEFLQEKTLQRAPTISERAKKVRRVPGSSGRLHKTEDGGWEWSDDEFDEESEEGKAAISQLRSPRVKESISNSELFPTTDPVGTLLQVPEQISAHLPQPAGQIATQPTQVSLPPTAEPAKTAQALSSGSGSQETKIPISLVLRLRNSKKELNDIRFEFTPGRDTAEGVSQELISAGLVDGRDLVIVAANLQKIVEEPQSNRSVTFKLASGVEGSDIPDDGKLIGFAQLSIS

SMILES: COc1cc(C(=O)N2CCC(N3CCN(C)CC3)CC2)ccc1Nc1ncc2c(n1)N(C1CCCC1)c1ccccc1C(=O)N2C [Compound 25, 11-cyclopentyl-2-((2-methoxy-4-(4-(4-methylpiperazin-1-yl)piperidine-1-carbonyl)phenyl)amino)-5-methyl-5H-benzo[e]pyrimido[5,4-b][1,4]diazepin-6(11H)-one]
- KINOMEscan: OSR1 [1]: 100
- KINOMEscan: JNK1 [2]: 38
- KINOMEscan: BLK [3]: 100

SMILES: COc1cc(C(=O)N2CCC(N3CCN(C)CC3)CC2)ccc1Nc1ncc2c(n1)N1CCc3cccc(c31)C(=O)N2C [Compound 24]
- KINOMEscan: OSR1 [1]: 100
- KINOMEscan: JNK1 [2]: 63

SMILES: COc1cc(C(=O)N2CCC(N3CCN(C)CC3)CC2)ccc1Nc1ncc2c(n1)N(C)c1ccccc1C(=O)N2C [15 (LRRK2-IN-1)]
- KINOMEscan: OSR1 [1]: 88
- KINOMEscan: JNK1 [2]: 95
- KINOMEscan: BLK [3]: 97

SMILES: CCOc1cc(C(=O)N2CCC(N3CCN(C)CC3)CC2)ccc1Nc1ncc2c(n1)N(C1CCCC1)c1ccccc1C(=O)N2C [Compound 26]
- KINOMEscan: OSR1 [1]: 99
- KINOMEscan: JNK1 [2]: 76
- KINOMEscan: BLK [3]: 100
